Data reported in paper PMC9477730, “Structures and mechanism of the plant PIN-FORMED auxin transporter” (Nature, 2022).

Key:
PIN8 [1] = molecular target: T1, PIN8 (Arabidopsis thaliana, UniProt Q9LFP6); experiment: cryo-EM structure at […] Å (outward-open); apparent Kd by SSM electrophysiology competition with NPA binding current
T1 construct: full-length, tag-free; model residues 1–164 and 206–367, homodimer
T1 sequence (Q9LFP6 1-367): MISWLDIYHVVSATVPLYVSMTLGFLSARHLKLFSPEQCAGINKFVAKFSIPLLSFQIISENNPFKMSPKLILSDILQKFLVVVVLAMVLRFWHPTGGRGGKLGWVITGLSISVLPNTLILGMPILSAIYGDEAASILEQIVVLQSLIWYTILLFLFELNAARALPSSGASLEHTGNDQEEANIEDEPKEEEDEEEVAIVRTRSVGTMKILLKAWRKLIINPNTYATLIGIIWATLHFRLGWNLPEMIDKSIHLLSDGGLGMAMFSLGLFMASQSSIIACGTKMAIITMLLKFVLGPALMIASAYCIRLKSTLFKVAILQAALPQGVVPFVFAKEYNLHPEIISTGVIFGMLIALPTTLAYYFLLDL

PIN8 [2] = molecular target: T1, PIN8; experiment: cryo-EM structure at […] Å (inward-open); Ki from SSM electrophysiology on proteoliposomes; type: biochemical
[3] = molecular target: the molecule itself; experiment: cryo-EM structure; purified tag-free PIN8 reconstituted in peptidisc; apo (2.9 Å), with 15 mM IAA (3.2 Å) and with 2 mM NPA (3.4 Å); C2 symmetry imposed, parallel C1 refinement showed no differences between the two monomers

Work on `O=C(O)Cc1c[nH]c2ccccc12` [IAA, Indole-3-acetic acid] yielded a Kd (PIN8 [1]) of 39.9 µM.

Work on `O=C(O)c1ccccc1C(=O)Nc1cccc2ccccc12` [NPA, naphthylphthalamic acid] yielded a Ki (PIN8 [2]) of 1.9 µM.

B1: Arabidopsis thaliana PIN8 (PIN-FORMED 8 auxin transporter) (natural protein, UniProt Q9LFP6 1-367, looked up)
chain: MISWLDIYHVVSATVPLYVSMTLGFLSARHLKLFSPEQCAGINKFVAKFSIPLLSFQIISENNPFKMSPKLILSDILQKFLVVVVLAMVLRFWHPTGGRGGKLGWVITGLSISVLPNTLILGMPILSAIYGDEAASILEQIVVLQSLIWYTILLFLFELNAARALPSSGASLEHTGNDQEEANIEDEPKEEEDEEEVAIVRTRSVGTMKILLKAWRKLIINPNTYATLIGIIWATLHFRLGWNLPEMIDKSIHLLSDGGLGMAMFSLGLFMASQSSIIACGTKMAIITMLLKFVLGPALMIASAYCIRLKSTLFKVAILQAALPQGVVPFVFAKEYNLHPEIISTGVIFGMLIALPTTLAYYFLLDL
notes: PIN8, Arabidopsis thaliana, UniProt Q9LFP6; the PIN8 gene cloned in a p423_GAL1-based plasmid; final models include residues 1-164 and 206-367 of 367 residues total; the cytosolic loop 165-205 is in the protein but not visible in the maps; also called AtPIN8; apo-PIN8; source: S. cerevisiae strain DSY-5, purified (Ni-NTA, TEV cleavage, SEC); in peptidisc or in LMNG detergent
With B1 the “stoichiometry N” value [3] was 2.
